Data set [1] in a line: TS-shRNA concentration in ascites and blood by RT-PCR after intraperitoneal lipoplex administration. The class given is in vivo, BALB/c nu/nu mice. The note with it: after i.p. administration of lipoplex (novel preparation (2)), ovarian cancer peritoneal metastasis mouse model.
Data set [2] relates to Luciferase-expressing human pancreatic cancer cells PANC-1. The experiment in a line: Therapeutic effect on peritoneal dissemination of pancreatic cancer (IVIS luciferase activity, survival). The class given is in vivo, BALB/c nu/nu mice. The note with it: PANC-1-luc model, lipoplex i.p. 20 μg TS-shRNA/mouse, Paclitaxel i.p. 10 mg/kg, days 8, 11, 14, 17, IVIS days 7-25. How it is done:
The therapeutic effects of the TS-shRNA-carrying lipoplex (i.e., novel preparation (2)) prepared in the same manner as in Example 1 on peritoneal dissemination of pancreatic cancer were evaluated.
Luciferase-expressing human pancreatic cancer cells PANC-1 (PANC-1-luc, Pharmaron) were cultured and transplanted intraperitoneally into BALB/c nu/nu mice (6- to 8-week-old, female, Beijing HFK Bio-Technology Co., Ltd.) at 1.0×10^7 cells/mouse to prepare mouse models for peritoneal dissemination of PANC-1-luc.
In Example 7, the lipoplex (novel preparation (2)), Paclitaxel (Taxol, Pharmaron), or the lipoplex (novel preparation (2)) in combination with Paclitaxel was administered to different mouse models. A 9% sucrose solution was administered to the control group.
The lipoplex (novel preparation (2)) was administered intraperitoneally to mouse models in such a manner that 20 μg of TS-shRNA would be administered to each mouse per day, and such administration was carried out four times in total (i.e., 8, 11, 14, and 17 days after the cell transplantation). Paclitaxel was administered intraperitoneally to the relevant group of mouse models four times in total (i.e., 8, 11, 14, and 17 days after the cell transplantation) at 10 mg/kg. […]

The text below walks through data of US9855345B2, “Method for producing lipoplex for topical administration and antitumor agent using such lipoplex” (DELTA-FLY PHARMA, INC., priority 2014, dated 2018).

“Also recorded” adds a separate entry of the source.

As for “TS-shRNA: TS-targeting shRNA, SEQ ID NO: 8, 5′-GUAACACCAUCGAUCAUGAUAGUGCUCCUGGUUGUCAUGAUCGAUGGUGUUACUU-3′ (shRNA hairpin in lipoplex, chemistry not given here)”, in data set [1], the “half-life of TS-shRNA in the ascites” value is reported as “approximately 8 hours” and the “leakage of TS-shRNA into the blood” value is “had not leaked”.

`CC(=O)O[C@H]1C(=O)[C@@]2(C)[C@H]([C@H](OC(=O)c3ccccc3)[C@]3(O)C[C@H](OC(=O)[C@H](O)[C@@H](NC(=O)c4ccccc4)c4ccccc4)C(C)=C1C3(C)C)[C@]1(OC(C)=O)CO[C@@H]1C[C@@H]2O` [Paclitaxel]: in data set [2], the “increase in luciferase activity (tumor growth in the abdominal cavity) compared with the control group” value is “suppressed; also recorded: strong tumor suppression effects”.
